Target: T1, nanoLuc TRAP1 (Homo sapiens, UniProt Q12931)
T1 construct: expressed in transfected cells; host or cells: SHSY5Y cells, transient transfection with FuGENE HD
T1 sequence (Q12931 60-704): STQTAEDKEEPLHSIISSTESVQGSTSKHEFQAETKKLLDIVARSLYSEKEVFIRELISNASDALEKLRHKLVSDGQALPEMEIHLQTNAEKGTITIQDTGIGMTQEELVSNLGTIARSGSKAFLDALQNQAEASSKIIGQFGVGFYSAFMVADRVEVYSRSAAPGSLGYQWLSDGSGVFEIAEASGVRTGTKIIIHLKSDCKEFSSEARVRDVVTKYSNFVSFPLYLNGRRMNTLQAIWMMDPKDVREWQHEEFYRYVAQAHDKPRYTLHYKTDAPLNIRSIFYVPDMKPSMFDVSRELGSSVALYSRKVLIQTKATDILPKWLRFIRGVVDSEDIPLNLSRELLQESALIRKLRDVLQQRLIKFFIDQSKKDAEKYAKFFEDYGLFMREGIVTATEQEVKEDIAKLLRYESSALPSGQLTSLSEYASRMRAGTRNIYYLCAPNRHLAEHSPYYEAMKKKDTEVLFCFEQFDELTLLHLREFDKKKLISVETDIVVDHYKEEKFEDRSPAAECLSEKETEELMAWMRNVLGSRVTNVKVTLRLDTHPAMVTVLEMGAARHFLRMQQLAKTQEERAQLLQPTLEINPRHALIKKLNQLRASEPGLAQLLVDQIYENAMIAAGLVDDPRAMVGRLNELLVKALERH
Assay: In-cell target engagement assay (NanoBRET) in SHSY5Y cells
Type: cell-based
Details: tracer probe-385, 1 μM; live SHSY5Y cells; FIG. 4
Description: In-cell target engagement assays were performed as described in Robers M. B. et al. (2019) Quantitative, Real-Time Measurements of Intracellular Target Engagement Using Energy Transfer. In: Ziegler S., Waldmann H. (eds) Systems Chemical Biology. Methods in Molecular Biology, vol 1888. Humana Press, New York, N.Y.; Machleidt et al., ACS Chem. Biol. 2015, 10, 8, 1797-1804; or Vasta et al., Cell Chemical Biology 25, 206-214, Feb. 15, 2018; or as described herein.
Below is a protocol for transient transfection of SHSY5Y cells with NanoLuc® fusions. • 1. Cultivate SHSY5Y cells appropriately prior to assay in MEM w NEAA supplemented with 10% FBS. • 2. Remove medium from cell flask via aspiration, trypsinize, and allow cells to dissociate from the flask. • 3. Neutralize trypsin using growth medium and pellet cells via centrifugation at 200 g for 5 minutes. • 4. Aspirate medium and re-suspend cells into a single cell suspension using complete cell culture medium. • 5. Adjust the cell density to 300K/mL in cell culture medium in a sterile, conical tube. • 6. Prepare lipid:DNA complexes as follows (this covers two assay plates, adjust numbers for more plates) • a. Prepare a 10 μg/mL solution of DNA in Opti-MEM without serum. This solution should contain the following ratios of carrier DNA and DNA encoding NanoLuc® fusion. • i. 5.0 μg/mL of Transfection Carrier DNA (pGEM) • ii. […]

displacement of the nanoBRET tracer molecule from nanoLuc TRAP1: displacing the nanoBRET tracer molecule
Compound: Cc1nn(C)c2sc(C(=O)Nc3ccc(F)c(S(=O)(=O)Nc4ccc(Cl)cc4)c3)cc12 [Compound 705]
